Reference: ChEMBL document CHEMBL1124322, “Synthesis and alpha 2-adrenoceptor antagonist activity of some disulfonamidobenzoquinolizines” (J Med Chem, 1989)

Columns and labels:
[1] = molecular target: Adrenergic receptor alpha (Rattus norvegicus) (UniProt P15823+P23944+P43140+P22086+P19328+P22909); experiment: Ratio of pA2 values at alpha-1 and alpha-2 adrenergic receptors.; assay type: protein assay
[2] = molecular target: T1, Adrenergic receptor alpha-1 (Rattus norvegicus, UniProt P15823+P23944+P43140); experiment: Antagonist activity against alpha-1 adrenergic receptor of rat anococcygeus muscle.; assay type: functional
T1 sequence (P15823 whole entry): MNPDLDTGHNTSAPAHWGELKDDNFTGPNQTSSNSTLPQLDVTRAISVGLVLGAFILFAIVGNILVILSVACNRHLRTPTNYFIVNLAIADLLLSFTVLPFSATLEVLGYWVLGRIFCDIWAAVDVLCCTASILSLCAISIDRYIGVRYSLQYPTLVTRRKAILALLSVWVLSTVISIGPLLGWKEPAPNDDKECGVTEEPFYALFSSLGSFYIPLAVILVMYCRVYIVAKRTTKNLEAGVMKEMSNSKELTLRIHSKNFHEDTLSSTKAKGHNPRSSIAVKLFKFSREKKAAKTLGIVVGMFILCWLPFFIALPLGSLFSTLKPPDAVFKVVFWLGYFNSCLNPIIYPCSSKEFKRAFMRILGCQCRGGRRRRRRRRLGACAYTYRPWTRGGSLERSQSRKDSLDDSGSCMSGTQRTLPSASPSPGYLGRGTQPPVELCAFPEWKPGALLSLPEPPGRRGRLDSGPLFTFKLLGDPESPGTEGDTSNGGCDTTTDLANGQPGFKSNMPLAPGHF
T1 sequence (P23944 whole entry): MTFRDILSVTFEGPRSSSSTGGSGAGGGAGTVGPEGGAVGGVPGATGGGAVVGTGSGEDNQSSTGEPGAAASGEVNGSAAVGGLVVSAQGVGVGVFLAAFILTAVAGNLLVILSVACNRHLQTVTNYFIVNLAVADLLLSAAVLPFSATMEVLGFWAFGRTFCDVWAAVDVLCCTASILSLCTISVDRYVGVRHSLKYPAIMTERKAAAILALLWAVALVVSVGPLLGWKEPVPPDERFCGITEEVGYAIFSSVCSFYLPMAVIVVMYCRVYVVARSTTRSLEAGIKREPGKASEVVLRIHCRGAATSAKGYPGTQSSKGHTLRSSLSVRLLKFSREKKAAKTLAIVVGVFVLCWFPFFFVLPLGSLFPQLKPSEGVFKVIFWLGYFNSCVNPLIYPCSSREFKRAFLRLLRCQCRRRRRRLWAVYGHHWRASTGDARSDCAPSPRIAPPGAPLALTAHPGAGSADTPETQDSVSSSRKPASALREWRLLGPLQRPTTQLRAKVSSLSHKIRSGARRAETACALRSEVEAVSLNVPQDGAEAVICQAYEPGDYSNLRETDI
T1 sequence (P43140 whole entry): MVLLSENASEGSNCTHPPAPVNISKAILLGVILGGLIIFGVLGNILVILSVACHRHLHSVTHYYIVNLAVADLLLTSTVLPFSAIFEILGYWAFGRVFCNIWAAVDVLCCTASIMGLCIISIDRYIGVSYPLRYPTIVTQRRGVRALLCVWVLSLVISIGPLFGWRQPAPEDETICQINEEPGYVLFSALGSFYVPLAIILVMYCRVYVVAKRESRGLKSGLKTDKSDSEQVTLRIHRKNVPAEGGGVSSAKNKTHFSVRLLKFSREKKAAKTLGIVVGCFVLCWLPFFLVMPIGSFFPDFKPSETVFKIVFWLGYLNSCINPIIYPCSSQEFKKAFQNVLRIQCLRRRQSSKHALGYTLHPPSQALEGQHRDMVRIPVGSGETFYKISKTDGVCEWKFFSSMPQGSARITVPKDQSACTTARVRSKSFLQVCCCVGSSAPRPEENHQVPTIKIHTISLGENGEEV

[3] = molecular target: T2, Adrenergic receptor alpha-2 (Rattus norvegicus, UniProt P22086+P19328+P22909); experiment: Antagonism of rat alpha-2 adrenergic receptor from rat vas deferens; assay type: functional
T2 sequence (P22086 whole entry): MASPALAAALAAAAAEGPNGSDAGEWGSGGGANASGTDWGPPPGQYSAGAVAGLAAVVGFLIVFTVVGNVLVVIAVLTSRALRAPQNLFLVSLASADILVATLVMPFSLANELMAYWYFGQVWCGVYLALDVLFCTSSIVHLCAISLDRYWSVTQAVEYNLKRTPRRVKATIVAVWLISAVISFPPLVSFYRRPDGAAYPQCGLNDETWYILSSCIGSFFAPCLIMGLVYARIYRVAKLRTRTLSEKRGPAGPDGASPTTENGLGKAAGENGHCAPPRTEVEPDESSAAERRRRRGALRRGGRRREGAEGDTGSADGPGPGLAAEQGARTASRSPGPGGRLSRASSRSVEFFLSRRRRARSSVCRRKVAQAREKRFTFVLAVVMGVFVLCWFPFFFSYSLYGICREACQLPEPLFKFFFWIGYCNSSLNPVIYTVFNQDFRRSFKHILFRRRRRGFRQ
T2 sequence (P19328 whole entry): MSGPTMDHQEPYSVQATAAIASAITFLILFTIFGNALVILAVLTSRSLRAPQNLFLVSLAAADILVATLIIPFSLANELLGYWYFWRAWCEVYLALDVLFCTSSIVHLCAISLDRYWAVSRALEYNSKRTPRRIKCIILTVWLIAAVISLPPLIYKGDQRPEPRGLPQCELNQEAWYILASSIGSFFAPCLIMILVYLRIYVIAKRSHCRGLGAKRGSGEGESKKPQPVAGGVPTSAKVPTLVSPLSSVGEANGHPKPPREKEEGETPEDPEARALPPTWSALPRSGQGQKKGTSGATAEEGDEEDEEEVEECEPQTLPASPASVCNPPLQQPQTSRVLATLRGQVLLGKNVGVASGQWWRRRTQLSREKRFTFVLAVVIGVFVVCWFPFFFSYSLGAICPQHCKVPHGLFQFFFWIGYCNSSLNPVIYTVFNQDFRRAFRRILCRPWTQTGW
T2 sequence (P22909 whole entry): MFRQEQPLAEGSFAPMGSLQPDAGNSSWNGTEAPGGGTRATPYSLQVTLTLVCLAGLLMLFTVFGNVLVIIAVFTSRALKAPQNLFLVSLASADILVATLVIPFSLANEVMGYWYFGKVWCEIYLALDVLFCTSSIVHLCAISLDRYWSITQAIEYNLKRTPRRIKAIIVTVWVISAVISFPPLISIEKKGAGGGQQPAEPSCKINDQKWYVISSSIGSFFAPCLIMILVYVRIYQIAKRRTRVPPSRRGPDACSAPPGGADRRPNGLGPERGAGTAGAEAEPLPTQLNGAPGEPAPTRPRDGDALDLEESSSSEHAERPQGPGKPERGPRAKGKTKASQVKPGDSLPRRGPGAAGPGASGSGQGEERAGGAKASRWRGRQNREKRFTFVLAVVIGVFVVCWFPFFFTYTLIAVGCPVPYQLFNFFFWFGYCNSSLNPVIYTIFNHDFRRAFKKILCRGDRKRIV

[4] = tested on: Adrenergic receptor alpha (Rattus norvegicus); experiment: Selectivity ratio towards alpha-2 and alpha1 expressed as antilog(alpha-2pA2-alpha-1pA2)
[5] = molecular target: T1, Adrenergic receptor alpha-1; experiment: Antagonist activity against Alpha-1 adrenergic receptor of rat anococcygeus muscle; assay type: functional
[6] = molecular target: T2, Adrenergic receptor alpha-2; experiment: Antagonist activity against alpha-2 adrenergic receptor of rat vas deferens; assay type: functional, tissue-based

Row | Compound | Ratio [1] | pA2 [2] | pA2 [3] | Ratio [4] | pA2 [5] | pA2 [6]
1 | CCCS(=O)(=O)N(C)[C@@H]1CCN2CCc3ccccc3[C@@H]2C1 | 55 |  |  |  |  | 
2 | Cc1cccc(S(=O)(=O)N(CCNS(C)(=O)=O)[C@@H]2CCN3CCc4ccccc4[C@@H]3C2)c1 | 40 | 6.4 | 8 |  |  | 
3 | CS(=O)(=O)NCCN([C@@H]1CCN2CCc3ccccc3[C@@H]2C1)S(=O)(=O)c1cccc([N+](=O)[O-])c1 | 10 | 6.7 | 7.69 |  |  | 
4 | CCCS(=O)(=O)N(CCNS(C)(=O)=O)[C@@H]1CCN2CCc3ccccc3[C@@H]2C1 | 310 | 5.8 | 8.29 |  |  | 
5 | CCS(=O)(=O)NCCN([C@@H]1CCN2CCc3ccccc3[C@@H]2C1)S(=O)(=O)c1ccc(C)cc1 |  | 6.6 | 7.62 |  |  | 
6 | COc1ccc(S(=O)(=O)N(CCNS(C)(=O)=O)[C@@H]2CCN3CCc4ccccc4[C@@H]3C2)cc1 | 100 | 6.1 | 8.1 |  |  | 
7 | CCS(=O)(=O)NCCN([C@@H]1CCN2CCc3ccccc3[C@@H]2C1)S(=O)(=O)CC | 540 | 5.54 | 8.27 |  |  | 
8 | O=S(=O)(CCl)NCCN([C@@H]1CCN2CCc3ccccc3[C@@H]2C1)S(=O)(=O)CCl |  |  | 8 | 47 | 6.33 | 
9 | CS(=O)(=O)N(CCNS(=O)(=O)c1ccccc1)[C@@H]1CCN2CCc3ccccc3[C@@H]2C1 | 1 | 5.9 | 5.9 |  |  | 
10 | CS(=O)(=O)NCCN([C@@H]1CCN2CCc3ccccc3[C@@H]2C1)S(=O)(=O)c1ccc(Cl)cc1 |  |  |  |  |  | 8.04
11 | Cc1ccc(S(=O)(=O)N(CCNS(C)(=O)=O)[C@@H]2CCN3CCc4ccccc4[C@@H]3C2)cc1 | 400 | 5.8 | 8.4 |  |  | 
12 | CCCS(=O)(=O)N(CCNS(=O)(=O)CC)[C@@H]1CCN2CCc3ccccc3[C@@H]2C1 |  |  | 8.1 |  |  | 
13 | CS(=O)(=O)NCCN([C@@H]1CCN2CCc3ccccc3[C@@H]2C1)S(=O)(=O)c1ccccc1 | 91 | 6.16 | 8.12 |  |  | 
14 | CS(=O)(=O)NCCN([C@@H]1CCN2CCc3ccccc3[C@@H]2C1)S(=O)(=O)c1ccc(F)cc1 | 100 | 5.7 | 7.7 |  |  | 

More lines, now with the values ahead:

Row | Ratio [1] | pA2 [2] | pA2 [3] | Ratio [4] | pA2 [5] | pA2 [6] | Compound
15 | 10 | 5.7 | 6.7 |  |  |  | CCCS(=O)(=O)NCCN([C@@H]1CCN2CCc3ccccc3[C@@H]2C1)S(C)(=O)=O
16 |  |  | 5.66 |  |  |  | CS(=O)(=O)NCCCCN([C@@H]1CCN2CCc3ccccc3[C@@H]2C1)S(C)(=O)=O
17 | 1 | 5.7 | 5.7 |  |  |  | CS(=O)(=O)NCCCN([C@@H]1CCN2CCc3ccccc3[C@@H]2C1)S(C)(=O)=O
18 | 120 | 5.65 | 7.73 |  |  |  | CCS(=O)(=O)NCCN([C@@H]1CCN2CCc3ccccc3[C@@H]2C1)S(C)(=O)=O
19 | 490 | 5.65 | 8.34 |  |  |  | CCS(=O)(=O)N(CCNS(C)(=O)=O)[C@@H]1CCN2CCc3ccccc3[C@@H]2C1
20 |  |  | 8.1 | 79 | 6.2 |  | CS(=O)(=O)N(CCNS(=O)(=O)CCl)[C@@H]1CCN2CCc3ccccc3[C@@H]2C1
21 | 3 | 5.5 | 6.03 |  |  |  | CN(CCN([C@@H]1CCN2CCc3ccccc3[C@@H]2C1)S(C)(=O)=O)S(C)(=O)=O
22 | 410 | 5.32 | 7.93 |  |  |  | CS(=O)(=O)NCCN([C@@H]1CCN2CCc3ccccc3[C@@H]2C1)S(C)(=O)=O
23 |  |  | 6.14 |  |  |  | CC(C)(CN([C@@H]1CCN2CCc3ccccc3[C@@H]2C1)S(C)(=O)=O)NS(C)(=O)=O
24 |  |  | 6.4 |  |  |  | CS(=O)(=O)N(CCNS(=O)(=O)C(F)(F)F)[C@@H]1CCN2CCc3ccccc3[C@@H]2C1
